# From patent publication US20260174778A1, “SULFONAMIDE COMPOUND, AND PREPARATION METHOD THEREFOR AND USE THEREOF” (SHANGHAI HENLIUS BIOTECH, INC., priority 2023, published 2026)
# pIC50: −log10 of the molar value.
# System: breast cancer cell line ZR-75-1
# Assay: Inhibition of proliferation of breast cancer cell line ZR-75-1 (CellTiter-Glo)
# Assay type: cell-based
# Conditions: Homo sapiens, 240 h, proliferation of ZR-75-1 cells, 10 days of incubation, read-out: IC50 (KAT6A)
# Source text: Test Example 1: Experiment for Determining Inhibitory Effects of Compounds on Proliferation of Breast Cancer Cell Line ZR-75-1
# ATP is an indicator of the metabolism of living cells. The CellTiter-Glo® Luminescent Cell Viability Assay is a homogeneous assay method for determining the number of viable cells by quantifying ATP.
# • 1) ZR-75-1 (Cell Bank of Chinese Academy of Sciences, TCHul26) • 2) RPMI-1640 medium (Gibco, 11875-093) • 3) Fetal Bovine Serum, New Zealand (Gibco,10091-148) • 4) Penicillin-streptomycin (10,000 U/mL) (Gibco, 15140-122) • 5) Trypsin-EDTA (0.25%), containing phenol red (Gibco, 25200-072) • 6) DPBS (Shanghai BasalMedia, B210KJ) • 7) Corning® 96-well Clear Flat Bottom Ultra-Low Attachment Microplate (Corning, Cat. No. 3474) • 8) 330 μL 96 Holes Deep Well Plate, transparents, 96 Round Holes, V-shaped Bottom, Low Retention (Stellar Scientific, DP33VR-9-NS) • 9) Corning® 96-well solid white flat-bottom polystyrene microplate (Corning, Cat. No. 3917) • 10) CellTiter-Glo® Luminescent Cell Viability Assay (Promega, G7573) • 11) Countstar® BioMed automatic cell counter • 12) Trypan blue solution, 0.4% (Gibco, Cat. No. 15250061) • 13) 37° C. constant-temperature incubator (Thermo, FORMA STERI-CYCLE i160 LK) • 14) Biosafety cabinet (Thermo, 1379)
# • 1) The formula of the complete medium for ZR-75-1 was as follows: 500 mL RPMI-1640+10% FBS+1% penicillin-streptomycin. • 2) Thirty minutes before cell plating, the complete medium, serum, trypsin, and DPBS for use in ZR-75-1 cell culture were pre-warmed in a water bath at 37° C. • 3) The ZR-75-1 cells were taken out of the incubator, and the medium was removed by pipetting. The cells were rinsed once with 5 mL of DPBS, and then the DPBS was discarded. • 4) The cells in the T75 culture flask were digested with 1-3 mL of (0.25%) trypsin-EDTA. After the trypsin was added, the culture flask was incubated in an incubator at 37° C. for 2-5 min, and dispersion was confirmed by microscopic examination. Tapping or agitating the culture flask was avoided to prevent disturbing the cells, which might cause cell clumping. • 5) 9 mL of the complete medium was added to terminate the digestion, thus forming a cell suspension, which was then mixed well by pipetting. • 6) Cell suspension counting: 20 μL of the cell suspension was pipetted and diluted with 20 µL of the 0.4% trypan blue solution (Gibco, Cat. No. 15250061). The total cell count and the percentage of cell viability were determined using the Countstar® BioMed automatic cell counter. Only cells with a cell viability of no less than 95% were used for the experiment. • 7) The concentration of the cell suspension was adjusted to 2000 cells/well, and the cell suspension was added to a 96-well cell culture plate at 80 μL/well. Treatment of Cells with Compounds • 1) Twenty-four hours after cell plating, the cell plate was taken out. • 2) Each compound was prepared with a complete medium. The stock solution was a 10 mM solution in DMSO, which was first diluted with the medium to 100 μM, then diluted to 1 μM, and finally subjected to a 5-fold serial dilution across a total of 9 concentration gradients. • 3) 20 μL of the compound diluted with the medium was added to each well of the cell culture plate, which already contained 80 μL of the medium. The final concentration started at 200 nM, followed by a 5-fold serial dilution across a total of 9 concentration gradients. Two replicate wells were set for each compound, and each plate could be used to test 3 compounds, with the DMSO content controlled within 0.5%. • 4) The culture medium was replenished once every three days with a complete medium containing the same concentration of the test compound, with 20 μL/well added each time.
# After 10 days of incubation with the compound, the cell culture plate was taken out, and the CellTiter-Glo® reagent was added at 50 μL/well. […]
row,Compound,pIC50
1,"COc1ccc2c(c1S(=O)(=O)Nc1noc3cc(Cn4cccn4)cc(OC)c13)OCCC21CCCC1 [Compound 26, N-(6-((1H-Pyrazol-1-yl)methyl)-4-methoxybenzo[d]isoxazol-3-yl)-7-methoxyspiro[chromane-4,1′-cyclopentane]-8-sulfonamide]",> 9.30
2,"COc1ccc2c(c1S(=O)(=O)Nc1noc3cc(Cn4cccn4)c(F)c(OC)c13)OCCC2(C)C [Compound 27, N-(6-((1H-Pyrazol-1-yl)methyl)-5-fluoro-4-methoxybenzo[d]isoxazol-3-yl)-7-methoxy-4,4-dimethylchromane-8-sulfonamide]",> 9.30
3,"COc1ccc2c(c1S(=O)(=O)Nc1noc3cc(Cn4cccn4)c(Cl)c(OC)c13)OCCC2(C)C [Compound 29, N-(6-((1H-Pyrazol-1-yl)methyl)-5-chloro-4-methoxybenzo[d]isoxazol-3-yl)-7-methoxy-4,4-dimethylchromane-8-sulfonamide]",7.30 to 8.00
4,"COc1ccc2c(c1S(=O)(=O)Nc1noc3cc(Cn4cccn4)c(Cl)c(OC)c13)OCCO2 [Compound 30, N-(6-((1H-Pyrazol-1-yl)methyl)-5-chloro-4-methoxybenzo[d]isoxazol-3-yl)-6-methoxy-2,3-dihydrobenzo[b][1,4]dioxine-5-sulfonamide]",7.30 to 8.00
5,"COc1ccc2c(c1S(=O)(=O)Nc1noc3cc(Cn4cccn4)c(F)c(Cl)c13)OCCC2(C)C [Compound 31, N-(6-((1H-Pyrazol-1-yl)methyl)-4-chloro-5-fluorobenzo[d]isoxazol-3-yl)-7-methoxy-4,4-dimethylchromane-8-sulfonamide]",8.70 to 9.30
6,"COc1ccc2c(c1S(=O)(=O)Nc1noc3cc(Cn4cccn4)c(F)c(Cl)c13)OCCO2 [Compound 32, N-(6-((1H-Pyrazol-1-yl)methyl)-4-chloro-5-fluorobenzo[d]isoxazol-3-yl)-6-methoxy-2,3-dihydrobenzo[b][1,4]dioxine-5-sulfonamide]",8.00 to 8.70
7,"COc1ccc2c(c1S(=O)(=O)Nc1noc3cc(Cn4cccn4)cc(Cl)c13)OCCC2(C)C [Compound 33, N-(6-((1H-Pyrazol-1-yl)methyl)-4-chlorobenzo[d]isoxazol-3-yl)-7-methoxy-4,4-dimethylchromane-8-sulfonamide]",8.70 to 9.30
8,"COc1ccc2c(c1S(=O)(=O)Nc1noc3cc(Cn4cccn4)cc(Cl)c13)OCCO2 [Compound 34, N-(6-((1H-Pyrazol-1-yl)methyl)-4-chlorobenzo[d]isoxazol-3-yl)-6-methoxy-2,3-dihydrobenzo[b][1,4]dioxine-5-sulfonamide]",8.00 to 8.70
9,"COc1ccc2c(c1S(=O)(=O)Nc1noc3cc(Cn4cccn4)cc(OC)c13)OCCC21CC1 [Compound 35, N-(6-((1H-Pyrazol-1-yl)methyl)-4-methoxybenzo[d]isoxazol-3-yl)-7-methoxyspiro[chromane-4,1′-cyclopropane]-8-sulfonamide]",> 9.30
10,"COc1ccc2c(c1S(=O)(=O)Nc1noc3cc(Cn4cccn4)cc(OC)c13)OCCC2O (centres unmarked) [Compound 36, N-(6-((1H-Pyrazol-1-yl)methyl)-4-methoxybenzo[d]isoxazol-3-yl)-4-hydroxy-7-methoxychromane-8-sulfonamide]",> 9.30
11,"COc1ccc2c(c1S(=O)(=O)Nc1noc3cc(Cn4cccn4)cc(OC)c13)OCCC2=O [Compound 37, N-(6-((1H-Pyrazol-1-yl)methyl)-4-methoxybenzo[d]isoxazol-3-yl)-7-methoxy-4-oxochromane-8-sulfonamide]",> 9.30
12,"COc1ccc2c(c1S(=O)(=O)Nc1noc3cc(Cn4cccn4)cc(OC)c13)OCCC2(C)O (centres unmarked) [Compound 38, N-(6-((1H-Pyrazol-1-yl)methyl)-4-methoxybenzo[d]isoxazol-3-yl)-4-hydroxy-7-methoxy-4-methylchromane-8-sulfonamide]",> 9.30
13,"COc1ccc2c(c1S(=O)(=O)Nc1noc3cc(Cn4cccn4)cc(OC)c13)OCCC21SCCS1 [Compound 39, N-(6-((1H-Pyrazol-1-yl)methyl)-4-methoxybenzo[d]isoxazol-3-yl)-7-methoxyspiro[chromane-4,2′-[1,3]dithiolane]-8-sulfonamide]",> 9.30
14,"COc1ccc2c(c1S(=O)(=O)Nc1noc3cc(Cn4cccn4)cc(OC)c13)OCCN2C [Compound 41, N-(6-((1H-Pyrazol-1-yl)methyl)-4-methoxybenzo[d]isoxazol-3-yl)-7-methoxy-4-methyl-3,4-dihydro-2H-benzo[b][1,4]oxazine-8-sulfonamide]",8.70 to 9.30
15,"COc1ccc2c(c1S(=O)(=O)Nc1noc3cc(Cn4cccn4)c(F)c(OC)c13)OCCC21CC1 [Compound 43, N-(6-((1H-Pyrazol-1-yl)methyl)-5-fluoro-4-methoxybenzo[d]isoxazol-3-yl)-7-methoxyspiro[chromane-4,1′-cyclopropane]-8-sulfonamide]",> 9.30
16,"COc1ccc2c(c1S(=O)(=O)Nc1noc3cc(Cn4cccn4)c(F)c(OC)c13)OCCC21SCCS1 [Compound 44, N-(6-((1H-Pyrazol-1-yl)methyl)-5-fluoro-4-methoxybenzo[d]isoxazol-3-yl)-7-methoxyspiro[chromane-4,2′-[1,3]dithiolane]-8-sulfonamide]",> 9.30
17,"COc1ccc2c(c1S(=O)(=O)Nc1noc3cc(Cn4cccn4)cc(Cl)c13)OCCC2=O [Compound 45, N-(6-((1H-Pyrazol-1-yl)methyl)-4-chlorobenzo[d]isoxazol-3-yl)-7-methoxy-4-oxochromane-8-sulfonamide]",8.00 to 8.70
18,"COc1ccc2c(c1S(=O)(=O)Nc1noc3cc(Cn4cccn4)cc(Cl)c13)OCCC21CC1 [Compound 46, N-(6-((1H-Pyrazol-1-yl)methyl)-4-chlorobenzo[d]isoxazol-3-yl)-7-methoxyspiro[chromane-4,1′-cyclopropane]-8-sulfonamide]",8.00 to 8.70
19,"COc1ccc2c(c1S(=O)(=O)Nc1noc3cc(Cn4cccn4)cc(Cl)c13)OCCC21SCCS1 [Compound 47, N-(6-((1H-Pyrazol-1-yl)methyl)-4-chlorobenzo[d]isoxazol-3-yl)-7-methoxyspiro[chromane-4,2′-[1,3]dithiolane]-8-sulfonamide]",8.70 to 9.30
20,"COc1ccc2c(c1S(=O)(=O)Nc1noc3cc(Cn4cccn4)c(F)c(Cl)c13)OCCC2=O [Compound 48, N-(6-((1H-Pyrazol-1-yl)methyl)-4-chloro-5-fluorobenzo[d]isoxazol-3-yl)-7-methoxy-4-oxochromane-8-sulfonamide]",8.70 to 9.30
21,"COc1ccc2c(c1S(=O)(=O)Nc1noc3cc(Cn4cccn4)c(F)c(Cl)c13)OCCC21CC1 [Compound 49, N-(6-((1H-Pyrazol-1-yl)methyl)-4-chloro-5-fluorobenzo[d]isoxazol-3-yl)-7-methoxyspiro[chromane-4,1′-cyclopropane]-8-sulfonamide]",8.00 to 8.70
22,"COc1ccc2c(c1S(=O)(=O)Nc1noc3cc(Cn4cccn4)c(Cl)c(OC)c13)OCCC21CC1 [Compound 52, N-(6-((1H-Pyrazol-1-yl)methyl)-5-chloro-4-methoxybenzo[d]isoxazol-3-yl)-7-methoxyspiro[chromane-4,1′-cyclopropane]-8-sulfonamide]",≤ 7.30
23,"COc1cccc(OC)c1S(=O)(=O)Nc1nnc2cc(Cn3cccn3)cc(OC)n12 [Compound 58, N-(7-((1H-Pyrazol-1-yl)methyl)-5-methoxy-[1,2,4]triazolo[4,3-a]pyridin-3-yl)-2,6-dimethoxybenzenesulfonamide]",≤ 7.30
